{"source": "BindingDB's records for doi:10.1016/0024-3205(90)90472-4", "about": "(University of Arizona, 1990)", "biological_target": "T1, Muscarinic acetylcholine receptor M2 (Rattus norvegicus, UniProt P10980)", "T1 sequence (P10980 whole entry)": "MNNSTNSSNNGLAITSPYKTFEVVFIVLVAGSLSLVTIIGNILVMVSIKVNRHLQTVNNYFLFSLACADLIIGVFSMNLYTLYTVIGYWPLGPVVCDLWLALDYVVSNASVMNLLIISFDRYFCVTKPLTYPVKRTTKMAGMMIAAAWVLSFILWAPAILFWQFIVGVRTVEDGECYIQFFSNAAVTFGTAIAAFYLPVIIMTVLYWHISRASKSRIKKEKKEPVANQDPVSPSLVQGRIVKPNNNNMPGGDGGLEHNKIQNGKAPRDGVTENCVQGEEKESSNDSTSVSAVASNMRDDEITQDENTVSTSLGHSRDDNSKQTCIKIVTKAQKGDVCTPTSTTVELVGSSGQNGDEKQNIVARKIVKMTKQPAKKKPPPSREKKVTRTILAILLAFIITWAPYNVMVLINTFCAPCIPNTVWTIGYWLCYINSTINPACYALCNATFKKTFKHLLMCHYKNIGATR", "note": "pKi: −log10 of the molar value."}
{"molecule": "C[C@H]1OC(=O)C2C[C@H]3CCCC[C@@H]3[C@@H](/C=C/[C@@H]3CCC[C@H](C)N3C)C21", "note": "(stereo partly specified) [HIMBACINE]", "values": [{"measurement": "pKi", "value": 7.99}]}
